In patent US8222216B2, “Mesenchymal cell proliferation promoter and skeletal system biomaterial” (Osaka University, priority 2006, dated 2012):
No end group written: not given here.

Assays:
[1] = test system: human gingival fibroblasts; assay: Adhesion of human gingival fibroblasts to peptide-coated plate (crystal violet); type: cell-based; settings: plate coated with 0.01 to 100 μg/ml peptide, 30 minutes incubation, P<0.01, n=8, FIG. 10
Experimental: (§1) An effect that is exerted on adhesive capacity of the mesenchymal cells by the SVVYGLR peptide (SEQ ID NO: 1) was analyzed. The mesenchymal cells used in this example were: human marrow-derived mesenchymal stem cells (human mesenchymal stem cell for study: provided by RIKEN CELL BANK); human gingival fibroblasts (isolated from human gingival and cultured according to a publicly known method); and human periodontal ligament cells (normal human periodontal ligament fibroblast cells: purchased from Sanko Junyaku Co., Ltd).
(§2) A coating plate was produced through the steps of: adding the synthesized SVVYGLR peptide (SEQ ID NO: 1) (0 to 100 μg/ml) to a 96-well microplate for floating cells (ASAHI TECHNO GLASS CORPORATION) for culturing these cells, allowing the microplate to stand for 2 hours at 37 °C, and rinsing the microplate twice in phosphate buffer (PBS: Sigma Pharmaceuticals Ltd). The SVVYGLR peptide (SEQ ID NO: 1) was synthesized with the method described in example 1. […]
(§3) The cells attached to the coating plate were stained with 0.1% crystal violet (Wako Chemicals USA. Inc) […], and then rinsed three times with PBS. Twenty-percent TritonX (Sigma Pharmaceuticals Ltd) was added to each well, and 48 hours later, optical density of each well at a wavelength of […] was measured (reference wavelength […]) by using an optical density spectrometer (BioRad model 680).

dental pulp cells = assay: Proliferation of dental pulp cells (WST-1 cell counting); type: cell-based, Sprague-Dawley rat; settings: 10 to 100 ng/ml peptide, day-10 or later, P<0.01, n=6, FIG. 2
Experimental: (§4) An in vitro experiment was conducted to analyze how the SVVYGLR peptide (SEQ ID NO: 1) affected a proliferating ability of mesenchymal cells present in intercellular substances of bone marrow and dental pulp.
(§5) Purchased human bone marrow-derived mesenchymal stem cells (Cambrex BioScience Inc.) were used as the mesenchymal cells of the intercellular substance of bone marrow. Further, “dental pulp cells”, the mesenchymal cells that constitute a main component of dental pulp tissue, were isolated from a lower incisor of a Sprague-Dawley rat (8-week old male) and cultured based on the method of Nakamura H et al. (J Dent Res. 84: 515-520: 2005), and used for the experiment.
(§6) These cells were seeded into a 96-well cell culture plate at a rate of 5,000 cells/well, and the number of cells under the presence of the SVVYGLR peptide (SEQ ID NO: 1) (0 to 100 ng/ml) was measured by using WST-1 Cell Counting Kit (DOJINDO LABORATORIES). A culture medium was replaced every other day.

[2] = test system: mesenchymal cells isolated from thigh bone marrow; assay: Pellet culture of bone marrow mesenchymal cells (three-dimensional proliferation); type: cell-based, Sprague-Dawley rat; settings: 100 ng/ml peptide
Experimental: A pellet culture experiment was conducted to analyze how the SVVYGLR peptide (SEQ ID NO: 1) affected the mesenchymal cells when the mesenchymal cells clump together three-dimensionally over a long time.
The mesenchymal cells were isolated from thigh bone marrow of a Sprague-Dawley rat (8-week old male), and cultured in a pellet culture with initial count of 50,000 cells based on the method of Tsutsumi S et al. (Biochem Biophys Res Commun. 288:413-419:2001). The incubation was carried out with a culture medium prepared in such a manner that dexamethasone (100 nM, Sigma-Aldrich), ascorbic acid (50 μg/ml, Sigma-Aldrich), ITS+ premix (100 times diluted, BD Biosciences), and recombinant human transforming growth factor-β1 (10 ng/ml, PeproTech EC) were added to α-MEM (high glucose: Nacalai Tesque, Inc). The SVVYGLR peptide (SEQ ID NO: 1) (100 ng/ml) was added to the culture medium and the pellet was incubated for 26 days. The culture medium was replaced every other day.
The pellet was collected and fixed in phosphate buffered 10% formalin solution for 3 hours at 4° C. After the pellet was washed with PBS (pH7.4), the pellet was soaked in the PBS of a culture plate and photographed under a phase contrast microscope. Planar dimensions of the pellet on a photographed image were measured by using an image analysis software ImageJ ver.1.33u (National Institute of health, USA).

[3] = test system: human periodontal ligament cells; assay: Adhesion of human periodontal ligament cells to peptide-coated plate (crystal violet); type: cell-based; settings: plate coated with 0.01 to 100 μg/ml peptide, 30 minutes incubation, P<0.01, n=8, FIG. 11
Experimental: as §1, §2, §3

[4] = test system: human bone marrow-derived mesenchymal stem cells; assay: Proliferation of human marrow-derived mesenchymal stem cells (WST-1 cell counting); type: cell-based; settings: 10 to 100 ng/ml peptide, day-4 or later, P<0.01, n=6, FIG. 1
Experimental: as §4, §5, §6

[5] = test system: human marrow-derived mesenchymal stem cells; assay: Adhesion of human marrow-derived mesenchymal stem cells to peptide-coated plate (crystal violet); type: cell-based; settings: plate coated with 0.01 to 100 μg/ml peptide, 30 minutes incubation, P<0.01, n=8, FIG. 9
Experimental: as §1, §2, §3

SVVYGLR [SVVYGLR peptide, osteopontin-derived peptide of seven amino acids, synthesized by Fmoc solid-phase method]
number of human gingival fibroblasts adhered to coated plate compared to control [1]: significantly increased density-dependently
number of dental pulp cells compared to control group (dental pulp cells): significantly increased
toluidine blue staining of pellet segments (extracellular matrix, acid mucopolysaccharide) ([2]; 26 days pellet culture): no toluidine blue staining was observed
pellet size (planar dimensions) relative to control group ([2]; incubated 26 days, three pellets per group, FIG. 4): 1.5 times
number of human periodontal ligament cells adhered to coated plate compared to control [3]: significantly increased density-dependently
number of human marrow-derived mesenchymal stem cells compared to control group [4]: significantly increased
number of human marrow-derived mesenchymal stem cells adhered to coated plate compared to control [5]: significantly increased density-dependently
